In patent US9199965B2, “Benzoimidazole derivatives and pharmaceutical composition comprising the same” (Daewoong Co., Ltd., priority 2005, dated 2015) one finds IC50, inhibition and inhibition in vivo data, which are given here for one molecule.

The target of assay [1] is T1, human vanilloid-1 (hVR1) (Homo sapiens, UniProt Q8NER1).
T1 construct: expressed in transfected cells; host or cells: HEK293 Tet-on (hVR1-HEK293), doxycycline-induced
The assay can be described thus: Calcium influx of vanilloid receptor in hVR1-HEK293 cells (capsaicin-induced, Fluo-3/AM). Type of assay: cell-based. Conditions: 1 μM capsaicin-induced intracellular calcium influx, read-out: Inhibitory Activity IC50. The method in brief: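 HEK293 Tet-on cells expressing human VR1 were induced with deoxycycline and loaded with Fluo-3/AM for 90 min at 37 °C. Cells were given test compound at several concentrations, then stimulated with 1 μM capsaicin. Inhibition of the calcium fluorescence signal was fitted with the Hill equation.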
In general terms: Calcium assays in cells follow changes in intracellular calcium, usually with a dye or a luminescent sensor.

The target in assay [2] is T2, rat TRPV1 (Rattus norvegicus, UniProt O35433).
T2 construct: expressed in transfected cells; host or cells: HEK293
T2 sequence (O35433 whole entry): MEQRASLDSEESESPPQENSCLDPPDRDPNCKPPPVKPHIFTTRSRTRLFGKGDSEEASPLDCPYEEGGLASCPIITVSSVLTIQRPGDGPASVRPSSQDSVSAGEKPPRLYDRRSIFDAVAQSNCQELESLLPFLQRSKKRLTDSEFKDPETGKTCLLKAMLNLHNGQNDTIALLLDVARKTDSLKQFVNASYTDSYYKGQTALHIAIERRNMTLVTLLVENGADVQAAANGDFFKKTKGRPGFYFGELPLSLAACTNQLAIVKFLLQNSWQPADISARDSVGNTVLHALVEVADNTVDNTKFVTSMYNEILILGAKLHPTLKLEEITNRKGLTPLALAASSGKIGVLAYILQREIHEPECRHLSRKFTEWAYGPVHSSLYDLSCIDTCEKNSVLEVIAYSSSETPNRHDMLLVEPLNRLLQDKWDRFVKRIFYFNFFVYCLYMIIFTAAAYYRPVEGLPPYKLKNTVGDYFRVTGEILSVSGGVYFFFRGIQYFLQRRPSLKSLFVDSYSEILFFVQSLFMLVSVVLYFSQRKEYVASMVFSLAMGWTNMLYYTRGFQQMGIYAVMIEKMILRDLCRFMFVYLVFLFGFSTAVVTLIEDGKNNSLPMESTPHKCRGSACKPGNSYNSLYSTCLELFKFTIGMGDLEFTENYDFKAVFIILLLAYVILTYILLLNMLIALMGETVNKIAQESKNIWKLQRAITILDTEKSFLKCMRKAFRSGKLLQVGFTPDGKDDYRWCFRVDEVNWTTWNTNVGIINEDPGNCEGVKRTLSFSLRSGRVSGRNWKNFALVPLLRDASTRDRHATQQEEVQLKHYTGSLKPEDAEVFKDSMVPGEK
The assay can be described thus: Assay for inhibitory activity against VR1 patch clamp activity (capsaicin current, inside-out patch). Type of assay: cell-based. Particulars: 1 μM compound with 10 μM capsaicin; rat TRPV1-transfected HEK293, inside-out patch; relative to capsaicin current before compound. How it is done: Each of the compounds synthesized in the examples were dissolved in dimethyl sulfoxide (DMSO) at a concentration of 10 mM. For use in the assay for inhibitory activity against patch clamp activity, the solutions were diluted to a concentration of 1 μM with the same physiological saline as in the pipette solution of Table 1, below.
2) Assay for Inhibitory Activity Against VR1 Patch Clamp Activity
In this experiment, changes in VR1 activity were recorded in current using an electrophysiological technique.
For use in this experiment, a rat TRPV1 cDNA was transfected into a subcultured HEK293 strain with the aid of lipofectamin.
The rat TRPV1 gene-transfected HEK293 cells were detached from the cell culture dishes with trypsin and distributed on a patch clamp recording chamber.
A cover glass slip on the bottom of the patch clamp recording chamber was treated for 15 min or longer with a […] poly-L-lysine solution so that the HEK cells would readily adhere thereto. Cellular membranes were ruptured at room temperature (˜25° C.) from randomly selected HEK cells to perform an inside-out patch clamp technique. 10 μM of capsaicin was fed into the chamber (cytoplasmic side) to activate a capsaicin current through the VR1. When the capsaicin current reached a stable stage, each compound was added along with 10 μM of capsaicin to record the inhibitory activity of the compounds with regard to the current. The inhibition was expressed as percentages.
Detected current was amplified using a Digidata 1200B A/D converter and an Axopatch 1D amplifier (Axon instruments Inc.), and the data were recorded and analyzed with the aid of a computer. The inhibitory activity of each compound was expressed as a percentage relative to the capsaicin current immediately before the administration of each compound.

Assay [3] relates to ICR male mice (PBQ-induced writhing). Briefly: PBQ-induced writhing test for analgesic effect. In kind it is in vivo. Particulars: Mus musculus, 1 h, 20 mg/kg oral, one hour before intraabdominal PBQ (0.02%), read-out: % Inhibition (decrease in number of writhes compared to control). Here is the method: A PBQ-induced writhing test was conducted in mice to assay for the analgesic effect of the novel compounds. Five-week-old ICR male mice were treated with PBQ (phenyl-p-quinone, 0.02%). A suspension of 20 mg of test material in 10 mL of physiological saline was used per kg of weight of mice. Test materials in combination with a carrier were orally administered one hour before the intraabdominal injection of PBQ in a dose of 10 mL per kg weight. From 5 min after the injection, individual mice in each test group were measured for numbers of writhes at regular intervals of 10 min. Analgesic effects of test compounds were expressed as percentages of the decrease in number of writhes compared to a control. [% Inhibition=(Control administered with carrier alone−Group administered with test material)/control administered with carrier alone×100]
(In writhing tests, fewer writhes than in controls are read as antinociception.)

SMILES strings stand for the structures.

T1 sequence (Q8NER1 whole entry): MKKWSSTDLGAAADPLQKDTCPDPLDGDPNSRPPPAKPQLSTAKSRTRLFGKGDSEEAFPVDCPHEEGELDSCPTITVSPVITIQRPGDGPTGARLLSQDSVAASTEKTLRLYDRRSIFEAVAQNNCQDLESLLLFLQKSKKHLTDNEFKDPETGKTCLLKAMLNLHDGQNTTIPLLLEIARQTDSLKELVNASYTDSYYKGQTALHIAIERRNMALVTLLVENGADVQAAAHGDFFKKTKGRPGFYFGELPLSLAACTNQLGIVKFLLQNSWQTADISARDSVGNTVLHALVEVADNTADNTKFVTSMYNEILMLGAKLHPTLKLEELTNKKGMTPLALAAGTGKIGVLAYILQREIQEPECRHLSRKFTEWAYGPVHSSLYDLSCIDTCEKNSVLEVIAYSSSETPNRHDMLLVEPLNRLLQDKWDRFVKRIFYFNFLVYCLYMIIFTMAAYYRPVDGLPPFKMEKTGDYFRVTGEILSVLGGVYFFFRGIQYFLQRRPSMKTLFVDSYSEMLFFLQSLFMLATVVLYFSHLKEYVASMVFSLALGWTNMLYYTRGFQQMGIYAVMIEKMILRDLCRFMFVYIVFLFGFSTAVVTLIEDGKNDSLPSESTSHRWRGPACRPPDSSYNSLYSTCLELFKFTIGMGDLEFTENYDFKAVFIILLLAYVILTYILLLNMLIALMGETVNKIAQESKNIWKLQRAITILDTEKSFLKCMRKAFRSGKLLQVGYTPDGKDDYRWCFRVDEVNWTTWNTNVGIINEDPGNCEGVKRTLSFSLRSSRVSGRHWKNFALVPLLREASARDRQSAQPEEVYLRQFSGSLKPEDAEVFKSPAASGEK

On to `CC(C)(C)c1ccc2nc(-c3ccc(-c4ncccc4Cl)c4ccccc34)[nH]c2c1` [Compound 105, 6-tert-butyl-2-[4-(3-chloropyridin-2-yl)naphthalen-1-yl]-1H-benzoimidazole], for which the 50% inhibitory concentration (IC50) (in general, the concentration that inhibits the measured activity by half) in assay [1] was 24 nM. In addition, in assay [2], testing at 1 µM gave an inhibition of 78%. In addition, in assay [3], the inhibition in vivo at 20 mg/kg worked out at 50%.
